In brackets after ≈: the same amount, converted by molar mass. Positions of bridges follow the written chain, without caps; N, C: chain ends. Residues, ends and D or L forms follow the SMILES beside them.
Experiments:
[1] = DPPH radical scavenging; conditions: at 3.125 μg/mL, 37 °C, 30 min in the dark, absorbance 517 nm; without concentration dependence
Procedure: DPPH^+ scavenging capacity: A 30 mL volume of […], Shanghai, China) solution was prepared with anhydrous ethanol and adjusted to reach an OD517 nm = 0.7. […] The Brevinin-1BW and DPPH solutions were mixed in equal volumes as the experimental group, incubated at 37 °C in the dark for 30 min, and then measured for the absorbance as A2. Vitamin C was used as the positive control. Its clearance rate was calculated according to the following formula: […]

[2] = system: IL-1β; test: Cytokine release in LPS-treated RAW264.7 cells, ELISA; type: cell-based, mouse; conditions: 4 μg/mL peptide, 1 μg/mL LPS, RAW264.7, 24 h, ELISA of supernatant
Procedure: (§1) RAW 264.7 mouse macrophages were cultured in DMEM medium (Gibco, New York, NY, USA). containing 10% FBS (TransGen Biotech, Beijing, China) and 1% penicillin-streptomycin (Biosharp, Guangzhou, China) and were seeded into 6-well plates at a cell density of 10^5 cells/mL. After cell adhesion, 1 μg/mL LPS (Solarbio, Beijing, China) and different concentrations of Brevinin-1BW (0, 1, 2, 3, and 4 μg/mL) were incubated for 24 h. Culture supernatants were collected, and the contents of TNFα, IL-6, and IL-1β were determined with enzyme-linked immunosorbent assay (BOSTER, Wuhan, China). All cells were washed twice with precooled PBS, total cellular RNA was extracted using the RNAsimple Total RNA Extraction kit (TIANGEN, Beijing, China), and total RNA concentration and purity were determined using a Thermo Fisher NanoDropOne nucleic acid protein spectrophotometer. HiScript II 1st Strand cDNA Synthesis Kit (Vazyme, Nanjing, China) synthesized cDNA, and we performed real-time PCR using Hieff® qPCR SYBR Green Master Mix (No Rox) (YEASEN, Shanghai, China). The primer sequences for Beta-actin (β-Actin), interleukins (IL-6, IL-1β), tumor necrosis factor (TNF-α), and nitric oxide synthase (iNOS) are shown in Table 6. Cells incubated without peptide and/or LPS were used as negative control. All experiments were repeated three times.

[3] = system: IL-6; test: as above; type: cell-based, mouse
Procedure: as §1

[4] = system: TNF-α; test: as above; type: cell-based, mouse
Procedure: as §1

[5] = system: E. hormaechei (ATCC700323); test: microbe, parasite or virus in culture; type: cell-based, Enterobacter hormaechei; conditions: ATCC700323, 18 h
Procedure: (§2) The minimum inhibitory concentration (MIC) of the Brevinin-1BW was measured in 96-well microtiter plates according to the Clinical and Laboratory Standards Institute (CLSI). The activated strains were treated with Mueller Hinton Agar (MHA) solid medium. Single colonies were picked and expanded to the logarithmic growth phase, and the solution was diluted to 2 × 10^6 CFU/mL using the McFarland turbidity standard. The MIC was determined with the two-fold dilution method. Briefly, 50 μL of Mueller Hinton (MH) medium was added to a 96-well plate in advance. Then, 50 μL of AMP solution was added to the first well, and 50 μL was pipetted into the next well after mixing using a row gun, while 50 μL was discarded from the last well. Final concentrations of Brevinin-1BW were 100, 50, 25, 12.5, 6.25, and 3.125 μg/mL. A 50 μL volume of the diluted bacterial solution was added, and the final concentration of the bacterial solution was 1 × 10^6 CFU/mL. This was then placed into a 37 °C incubator for 18 h until the next day to observe the degree of turbidity of the 96-well plate and measure the absorbance of the wells at 600 nm with a multifunctional microplate reader (SpectraMax iD5, Molecular Devices, Sunnyvale, CA, USA). The absence of turbidity and the measured concentration of absorbance being less than the opposing group was taken as the MIC. The positive control used ampicillin at the same final concentration as Brevinin-1BW, the negative control used 50 μL of MH medium mixed with 50 μL of 2 × 10^6 CFU/mL bacterial solution, and the blank contained only 100 μL of MH medium. Three replicate wells were set up for each experiment, and each experiment was repeated three times. The MIC and all concentrations above the MIC of bacterial solution coated on MHA solid medium were placed into 37 °C incubator incubation for 18 h. The lowest concentration resulting in no colony growth was taken as the minimum bactericidal concentration (MBC).

[6] = system: HUVEC; type: cell-based, human; conditions: 24 h
Procedure: (§3) Medium was prepared to contain 10% FBS (TransGen Biotech, China) and 1% penicillin-streptomycin (Biosharp, Guangzhou, China). A549, U-2OS, HePG2, HaCaT, HUVEC, and 293T cells were cultured in DMEM medium (Gibco, New York, NY, USA). A375, HCT116, Hela, and RAW264.7 cells were cultured in RPMI 1640 medium (Gibco, New York, NY, USA). The cytotoxicity of Brevinin-1BW was determined using the Cell Counting Kit-8 as follows: detached the cells from cell culture flasks with 0.25% trypsin, counted with a hemocytometer plate and then prepared into a cell suspension containing 5 × 10^3 cells/mL. Then, 90 μL of the cell suspension was inoculated into a 96-well plate and incubated at 37 °C in a 5% CO2-humidified atmosphere for 24 h. A 10 μL volume of the peptide was subsequently added to each well and co-incubated with the cells for 24 h. Then, 10 μL of CCK8 (Abbkine, Wuhan, China) was added to each well and incubated for a further 2 h. The absorbance of each well at 450 nm was measured using a multifunctional enzyme marker. […] Three replicate wells were set up for each experiment, and each experiment was repeated three times. The formula for calculating the cell viability is shown below.

[7] = system: Hela; type: cell-based, human; conditions: 24 h
Procedure: as §3

[8] = system: U-2OS; type: cell-based, human; conditions: 24 h
Procedure: as §3

[9] = system: 293T; type: cell-based, human; conditions: 24 h
Procedure: as §3

[10] = system: HePG2; type: cell-based, human; conditions: 24 h
Procedure: as §3

[11] = system: A375; type: cell-based, human; conditions: 24 h
Procedure: as §3

[12] = system: P. aeruginosa (ATCC27853); test: microbe, parasite or virus in culture; type: cell-based, Pseudomonas aeruginosa; conditions: ATCC27853, 18 h
Procedure: as §2

[13] = system: sheep erythrocytes; type: cell-based; conditions: red cells of sheep, 2 h
Procedure: A hemolytic assay of Brevinin-1BW was conducted using sheep erythrocytes (Solarbio, Beijing, China) at a concentration of 2% (v/v) of erythrocyte suspension. […] After centrifugation at 1000 rpm for 15 min, the absorbance of the supernatant was analyzed using a multifunctional enzyme standardizer with the wavelength set at 570 nm. The experiment was repeated three times. […] Haemolysis%=(A0−A2)/(A0−A1)×100

**Q.** With CC[C@H](C)[C@@H]1NC(=O)[C@H](CCCCN)NC(=O)[C@@H](NC(=O)[C@H](Cc2ccccc2)NC(=O)[C@@H](NC(=O)[C@@H](NC(=O)[C@@H]2CCCN2C(=O)[C@H](CC(C)C)NC(=O)[C@H](Cc2ccccc2)NC(=O)[C@H](CO)NC(=O)[C@H](C)NC(=O)[C@H](C)NC(=O)[C@H](CC(C)C)NC(=O)CNC(=O)[C@H](C)NC(=O)[C@H](CC(C)C)NC(=O)[C@H](CC(C)C)NC(=O)[C@@H]2CCCN2C(=O)[C@H](CC(C)C)NC(=O)[C@@H](N)Cc2ccccc2)[C@@H](C)O)[C@@H](C)CC)CSSC[C@@H](C(=O)O)NC(=O)[C@H](CCCCN)NC(=O)[C@H](CCCNC(=N)N)NC(=O)[C@H](CO)NC1=O [Brevinin-1BW] (H-FLPLLAGLAASFLPTIFCKISRKC-OH; disulfide 18-24) as the molecule, how does the “scavenging of DPPH radicals” value [1] read?
**A.** more than 70%

**Q.** What about the “decrease of IL-1β release” value [2] of the same molecule?
**A.** 91.46%

**Q.** And the “decrease of IL-6 release” value [3]?
**A.** 77.82%

**Q.** What about the “decrease of TNF-α release” value [4] of the same molecule?
**A.** 87.31%

**Q.** And the MBC [5]?
**A.** >100 µg/mL

**Q.** What about the MIC [5] of the same molecule?
**A.** 100 µg/mL (≈ 38.3 µM)

**Q.** And the CC50 [6]?
**A.** 43.62 ± 0.77 µg/mL (≈ 16.7 µM)

**Q.** And the CC50 [7]?
**A.** 37.62 ± 0.91 µg/mL (≈ 14.4 µM)

**Q.** What about the CC50 [8] of the same molecule?
**A.** 39.20 ± 0.40 µg/mL (≈ 15 µM)

**Q.** What about the CC50 [9] of the same molecule?
**A.** 28.34 ± 1.08 µg/mL (≈ 10.9 µM)

**Q.** What about the CC50 [10] of the same molecule?
**A.** 25.42 ± 0.49 µg/mL (≈ 9.75 µM)

**Q.** What about the CC50 [11] of the same molecule?
**A.** 23.79 ± 0.80 µg/mL (≈ 9.12 µM)

**Q.** What about the MBC [12] of the same molecule?
**A.** >100 µg/mL

**Q.** What about the MIC [12] of the same molecule?
**A.** 100 µg/mL (≈ 38.3 µM)

**Q.** What about the “HC50 (50% hemolytic concentration)” value [13] of the same molecule?
**A.** 35.8 µg/mL

Source: article PMC11013252, “Exploration of the Antibacterial and Anti-Inflammatory Activity of a Novel Antimicrobial Peptide Brevinin-1BW” (Molecules, 2024)
